2 compounds from ChEMBL document CHEMBL5260810, “Inhibition of bromodomain-containing protein 9 for the prevention of epigenetically-defined drug resistance” (Bioorg Med Chem Lett, 2017) can be followed below.

The term IC50 denotes the midpoint of a concentration-inhibition curve. Low readings indicate higher potency, high ones lower potency. Broadly, the Kd is a measure of binding affinity in units of concentration. Usually inhibition stands for the change of the read-out against control, counted positive when it falls.

Receptor-type tyrosine-protein kinase FLT3 (Homo sapiens), sequence (P36888 whole entry): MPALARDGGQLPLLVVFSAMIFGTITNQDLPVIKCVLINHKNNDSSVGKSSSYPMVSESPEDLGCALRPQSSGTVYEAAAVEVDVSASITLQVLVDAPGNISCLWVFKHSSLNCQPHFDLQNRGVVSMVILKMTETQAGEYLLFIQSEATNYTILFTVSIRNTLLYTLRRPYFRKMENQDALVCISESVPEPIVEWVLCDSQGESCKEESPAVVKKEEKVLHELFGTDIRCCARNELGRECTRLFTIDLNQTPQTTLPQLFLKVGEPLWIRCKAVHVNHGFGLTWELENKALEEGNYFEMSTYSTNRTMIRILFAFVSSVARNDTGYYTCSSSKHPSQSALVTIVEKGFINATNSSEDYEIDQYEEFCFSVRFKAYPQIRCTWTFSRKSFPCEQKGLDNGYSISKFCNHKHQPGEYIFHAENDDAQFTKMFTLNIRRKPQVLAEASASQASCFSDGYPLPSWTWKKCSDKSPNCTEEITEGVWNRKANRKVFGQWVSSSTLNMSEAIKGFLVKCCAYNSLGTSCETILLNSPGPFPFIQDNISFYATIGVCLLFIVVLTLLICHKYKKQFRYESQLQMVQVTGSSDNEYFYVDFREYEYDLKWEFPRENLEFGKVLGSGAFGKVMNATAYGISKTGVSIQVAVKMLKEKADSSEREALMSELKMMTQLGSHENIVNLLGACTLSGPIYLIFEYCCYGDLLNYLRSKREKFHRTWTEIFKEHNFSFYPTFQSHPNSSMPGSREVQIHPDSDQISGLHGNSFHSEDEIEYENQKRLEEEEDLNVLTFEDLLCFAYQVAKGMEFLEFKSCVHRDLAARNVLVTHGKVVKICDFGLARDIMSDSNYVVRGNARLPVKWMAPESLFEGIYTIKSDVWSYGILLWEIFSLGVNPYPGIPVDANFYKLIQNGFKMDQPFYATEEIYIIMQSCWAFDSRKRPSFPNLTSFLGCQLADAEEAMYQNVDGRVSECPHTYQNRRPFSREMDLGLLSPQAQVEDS

For one experiment, the system named is MV4-11. Kind of experiment: Cytotoxicity against human MV4-11 cells measured after 8 days. The experiment is classed as functional, cell-based. The conditions noted are these: MV4-11, 192 h.
`C/C=C/Cn1cc(-c2ccc(C(=O)N3CCOCC3)cc2)c2cc[nH]c2c1=O` displayed an IC50 of 6.86 µM.

System in a further experiment: not listed separately
Kind of experiment: Cytotoxicity against human KMS-27 cells measured after 8 days. The experiment is classed as functional, cell-based. Particulars: KMS-27, 192 h.
For the compound `C/C=C/Cn1cc(-c2ccc(C(=O)N3CCOCC3)cc2)c2cc[nH]c2c1=O`, the IC50 was found to be 20 µM.

The test system of the next experiment is LCLC-103H cell line. The experiment is described as follows: Cytotoxicity against human LCLC-103H cell line measured after 8 days. Particulars: 192 h. Type of experiment: functional, cell-based.
The compound `C/C=C/Cn1cc(-c2ccc(C(=O)N3CCOCC3)cc2)c2cc[nH]c2c1=O` came in with an IC50 of 20 µM.

The next experiment has as its system NCI-H2347. The experiment is described as follows: Cytotoxicity against human NCI-H2347 cells measured after 8 days. Type of experiment: functional, cell-based. The conditions noted are these: NCI-H2347, 192 h.
`C/C=C/Cn1cc(-c2ccc(C(=O)N3CCOCC3)cc2)c2cc[nH]c2c1=O` yielded a half-maximal inhibitory concentration (IC50) of 20 µM.

A further experiment relates to NCI-H460. Kind of experiment: Cytotoxicity against human NCI-H460 cells measured after 8 days. The experiment is classed as functional, cell-based. The conditions noted are these: NCI-H460, 192 h.
The compound `C/C=C/Cn1cc(-c2ccc(C(=O)N3CCOCC3)cc2)c2cc[nH]c2c1=O` showed an IC50 of 20 µM.

System in a further experiment: not listed separately
Kind of experiment: Cytotoxicity against human RERF-LC-OK cells measured after 8 days. Type of experiment: functional, cell-based. Particulars: 192 h.
`C/C=C/Cn1cc(-c2ccc(C(=O)N3CCOCC3)cc2)c2cc[nH]c2c1=O` returned an IC50 of 20 µM.

In a further experiment the test system is MC116. Kind of experiment: Cytotoxicity against human MC116 cells measured after 8 days. Particulars: MC116, 192 h. The experiment is classed as functional, cell-based.
`C/C=C/Cn1cc(-c2ccc(C(=O)N3CCOCC3)cc2)c2cc[nH]c2c1=O` showed a half-inhibitory concentration (IC50) of 10.2 µM.

The test system of a further experiment is SUD4. Kind of experiment: Cytotoxicity against human SU-DHL-4 cells measured after 8 days. The conditions noted are these: SU-DHL-4, 192 h. Type of experiment: functional, cell-based.
`C/C=C/Cn1cc(-c2ccc(C(=O)N3CCOCC3)cc2)c2cc[nH]c2c1=O` came in with an IC50 of 20 µM.

The next experiment deals with HCC1143. Kind of experiment: Cytotoxicity against human HCC1143 cells measured after 8 days. The experiment is classed as functional, cell-based. Particulars: HCC1143, 192 h.
Turning to `C/C=C/Cn1cc(-c2ccc(C(=O)N3CCOCC3)cc2)c2cc[nH]c2c1=O`, the IC50 was determined as 20 µM.

The subject of the next experiment is YMB-1-E. The experiment is described as follows: Cytotoxicity against human YMB-1-E cells measured after 8 days. Type of experiment: functional, cell-based. The conditions noted are these: 192 h.
For `C/C=C/Cn1cc(-c2ccc(C(=O)N3CCOCC3)cc2)c2cc[nH]c2c1=O`, the IC50 stood at 20 µM.

System in a further experiment: not listed separately
Kind of experiment: Cytotoxicity against human HCC4011 cells measured after 8 days. Type of experiment: functional, cell-based. Particulars: HCC4011, 192 h.
Consider `C/C=C/Cn1cc(-c2ccc(C(=O)N3CCOCC3)cc2)c2cc[nH]c2c1=O`, for which the IC50 was determined as 20 µM.

A further experiment addresses T1, ATPase family AAA domain-containing protein 2 (Homo sapiens, UniProt Q6PL18).
T1 sequence (Q6PL18 whole entry): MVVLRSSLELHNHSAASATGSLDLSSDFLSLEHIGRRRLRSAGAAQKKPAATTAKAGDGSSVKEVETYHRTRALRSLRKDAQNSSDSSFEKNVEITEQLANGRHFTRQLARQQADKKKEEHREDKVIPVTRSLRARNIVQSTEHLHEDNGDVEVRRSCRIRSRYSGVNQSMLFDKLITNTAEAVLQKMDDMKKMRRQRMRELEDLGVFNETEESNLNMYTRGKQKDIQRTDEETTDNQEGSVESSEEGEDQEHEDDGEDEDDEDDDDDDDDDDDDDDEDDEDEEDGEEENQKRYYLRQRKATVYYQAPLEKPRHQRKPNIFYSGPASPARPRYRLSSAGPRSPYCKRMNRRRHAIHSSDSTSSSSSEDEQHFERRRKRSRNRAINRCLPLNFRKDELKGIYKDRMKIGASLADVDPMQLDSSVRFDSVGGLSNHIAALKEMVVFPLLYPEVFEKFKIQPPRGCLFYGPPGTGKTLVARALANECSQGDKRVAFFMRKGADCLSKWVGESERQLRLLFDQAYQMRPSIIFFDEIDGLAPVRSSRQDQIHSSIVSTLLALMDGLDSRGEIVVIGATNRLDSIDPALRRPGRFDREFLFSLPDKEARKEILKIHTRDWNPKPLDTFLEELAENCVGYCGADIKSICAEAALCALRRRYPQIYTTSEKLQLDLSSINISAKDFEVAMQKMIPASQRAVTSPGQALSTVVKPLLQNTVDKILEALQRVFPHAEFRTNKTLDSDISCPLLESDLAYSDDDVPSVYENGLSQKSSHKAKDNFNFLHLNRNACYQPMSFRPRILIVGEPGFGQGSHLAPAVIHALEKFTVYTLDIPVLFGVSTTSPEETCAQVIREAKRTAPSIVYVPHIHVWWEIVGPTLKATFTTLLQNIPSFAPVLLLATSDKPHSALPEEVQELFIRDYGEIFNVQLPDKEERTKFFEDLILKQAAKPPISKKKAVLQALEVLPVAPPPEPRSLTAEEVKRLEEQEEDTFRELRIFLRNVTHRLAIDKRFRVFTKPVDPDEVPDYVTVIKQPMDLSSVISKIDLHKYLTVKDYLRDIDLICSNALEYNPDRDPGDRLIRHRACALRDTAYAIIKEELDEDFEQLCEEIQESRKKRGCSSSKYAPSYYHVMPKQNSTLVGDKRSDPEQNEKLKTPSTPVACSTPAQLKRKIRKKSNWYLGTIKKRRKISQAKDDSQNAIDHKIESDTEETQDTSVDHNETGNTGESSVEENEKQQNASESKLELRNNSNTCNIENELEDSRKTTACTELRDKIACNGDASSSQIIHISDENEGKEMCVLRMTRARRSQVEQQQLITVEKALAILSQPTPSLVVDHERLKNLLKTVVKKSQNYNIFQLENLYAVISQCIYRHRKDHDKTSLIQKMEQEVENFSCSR
The experiment is described as follows: Binding affinity to human partial length ATAD2A (Q981 to R1108 residues) expressed in bacterial expression system by BROMOscan assay.
Settings: not given
With `C/C=C/Cn1cc(-c2ccc(C(=O)N3CCOCC3)cc2)c2cc[nH]c2c1=O`, the Kd is above 10 µM.

The compound `C/C=C/Cn1cc(-c2cc(OC)c(C(C)(C)O)cc2OC)c2cc(C)[nH]c2c1=O` displayed a Kd of 9.3 µM.

The target in the next experiment is Bromodomain-containing protein 4 (Homo sapiens, UniProt O60885). The experiment is described as follows: Binding affinity to full length BRD4 short isoform (unknown origin) by BROMOscan assay.
Settings: not given
Consider `C/C=C/Cn1cc(-c2ccc(C(=O)N3CCOCC3)cc2)c2cc[nH]c2c1=O`, for which the Kd worked out at 1.2 µM.

`C/C=C/Cn1cc(-c2cc(OC)c(C(C)(C)O)cc2OC)c2cc(C)[nH]c2c1=O` returned a Kd above 10 µM.

The next experiment has as its target Bromodomain testis-specific protein (Homo sapiens, UniProt Q58F21). Kind of experiment: Binding affinity to human partial length BRDT bromodomain 1 (N21 to E137 residues) expressed in bacterial expression system by BROMOscan assay.
Settings: not given
Take `C/C=C/Cn1cc(-c2ccc(C(=O)N3CCOCC3)cc2)c2cc[nH]c2c1=O`: the equilibrium dissociation constant (Kd) turned out to be 2.5 µM.

Compound `C/C=C/Cn1cc(-c2cc(OC)c(C(C)(C)O)cc2OC)c2cc(C)[nH]c2c1=O` showed a Kd of 2.1 µM.

The next experiment addresses Receptor-type tyrosine-protein kinase FLT3 (Homo sapiens) (UniProt P36888). The experiment is described as follows: Inhibition of Flt3 (unknown origin) at 1 uM relative to control.
Settings: not given
For `C/C=C/Cn1cc(-c2ccc(C(=O)N3CCOCC3)cc2)c2cc[nH]c2c1=O`, the inhibition was 4.4%.

The target of a further experiment is Glycogen synthase kinase-3 beta (Homo sapiens) (UniProt P49841). The experiment is described as follows: Inhibition of GSK3beta (unknown origin) at 1 uM relative to control.
Glycogen synthase kinase-3 beta (Homo sapiens), sequence (P49841 whole entry, looked up): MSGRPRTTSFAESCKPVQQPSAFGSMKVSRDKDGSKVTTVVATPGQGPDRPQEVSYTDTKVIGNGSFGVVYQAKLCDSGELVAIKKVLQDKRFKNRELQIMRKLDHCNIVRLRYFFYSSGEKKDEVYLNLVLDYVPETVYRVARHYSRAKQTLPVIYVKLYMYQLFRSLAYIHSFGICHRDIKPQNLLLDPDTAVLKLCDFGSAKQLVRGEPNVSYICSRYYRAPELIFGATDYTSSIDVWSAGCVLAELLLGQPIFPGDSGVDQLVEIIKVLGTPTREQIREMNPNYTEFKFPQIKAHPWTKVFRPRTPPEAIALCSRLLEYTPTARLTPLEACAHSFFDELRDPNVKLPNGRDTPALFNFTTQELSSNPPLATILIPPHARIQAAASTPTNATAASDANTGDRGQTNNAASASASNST
Settings: not given
For the compound `C/C=C/Cn1cc(-c2ccc(C(=O)N3CCOCC3)cc2)c2cc[nH]c2c1=O`, the inhibition is -2%.

For another experiment, the target named is T2, Interleukin-1 receptor-associated kinase 4 (Homo sapiens) (UniProt Q9NWZ3).
T2 sequence (whole entry): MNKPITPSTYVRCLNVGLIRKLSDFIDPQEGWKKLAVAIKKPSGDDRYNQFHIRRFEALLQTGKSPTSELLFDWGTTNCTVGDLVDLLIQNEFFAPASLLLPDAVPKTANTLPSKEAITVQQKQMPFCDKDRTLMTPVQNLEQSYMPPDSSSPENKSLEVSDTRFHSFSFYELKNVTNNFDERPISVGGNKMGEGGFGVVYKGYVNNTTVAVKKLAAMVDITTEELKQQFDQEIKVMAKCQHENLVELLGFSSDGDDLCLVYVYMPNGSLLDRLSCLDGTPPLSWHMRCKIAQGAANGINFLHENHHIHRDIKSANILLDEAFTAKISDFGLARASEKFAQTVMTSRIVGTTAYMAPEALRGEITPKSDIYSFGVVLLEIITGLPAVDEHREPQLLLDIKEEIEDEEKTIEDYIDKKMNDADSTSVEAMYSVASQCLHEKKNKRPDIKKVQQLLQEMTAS
The experiment is described as follows: Inhibition of IRAK4 (unknown origin) at 1 uM relative to control.
Settings: not given
Take `C/C=C/Cn1cc(-c2ccc(C(=O)N3CCOCC3)cc2)c2cc[nH]c2c1=O`: the inhibition is -4.9%.

In the next experiment the target is Mitogen-activated protein kinase kinase kinase kinase 4 (Homo sapiens) (UniProt O95819). Kind of experiment: Inhibition of MAP4K4 (unknown origin) at 1 uM relative to control.
Mitogen-activated protein kinase kinase kinase kinase 4 (Homo sapiens), sequence (O95819 2-1239 limits assumed): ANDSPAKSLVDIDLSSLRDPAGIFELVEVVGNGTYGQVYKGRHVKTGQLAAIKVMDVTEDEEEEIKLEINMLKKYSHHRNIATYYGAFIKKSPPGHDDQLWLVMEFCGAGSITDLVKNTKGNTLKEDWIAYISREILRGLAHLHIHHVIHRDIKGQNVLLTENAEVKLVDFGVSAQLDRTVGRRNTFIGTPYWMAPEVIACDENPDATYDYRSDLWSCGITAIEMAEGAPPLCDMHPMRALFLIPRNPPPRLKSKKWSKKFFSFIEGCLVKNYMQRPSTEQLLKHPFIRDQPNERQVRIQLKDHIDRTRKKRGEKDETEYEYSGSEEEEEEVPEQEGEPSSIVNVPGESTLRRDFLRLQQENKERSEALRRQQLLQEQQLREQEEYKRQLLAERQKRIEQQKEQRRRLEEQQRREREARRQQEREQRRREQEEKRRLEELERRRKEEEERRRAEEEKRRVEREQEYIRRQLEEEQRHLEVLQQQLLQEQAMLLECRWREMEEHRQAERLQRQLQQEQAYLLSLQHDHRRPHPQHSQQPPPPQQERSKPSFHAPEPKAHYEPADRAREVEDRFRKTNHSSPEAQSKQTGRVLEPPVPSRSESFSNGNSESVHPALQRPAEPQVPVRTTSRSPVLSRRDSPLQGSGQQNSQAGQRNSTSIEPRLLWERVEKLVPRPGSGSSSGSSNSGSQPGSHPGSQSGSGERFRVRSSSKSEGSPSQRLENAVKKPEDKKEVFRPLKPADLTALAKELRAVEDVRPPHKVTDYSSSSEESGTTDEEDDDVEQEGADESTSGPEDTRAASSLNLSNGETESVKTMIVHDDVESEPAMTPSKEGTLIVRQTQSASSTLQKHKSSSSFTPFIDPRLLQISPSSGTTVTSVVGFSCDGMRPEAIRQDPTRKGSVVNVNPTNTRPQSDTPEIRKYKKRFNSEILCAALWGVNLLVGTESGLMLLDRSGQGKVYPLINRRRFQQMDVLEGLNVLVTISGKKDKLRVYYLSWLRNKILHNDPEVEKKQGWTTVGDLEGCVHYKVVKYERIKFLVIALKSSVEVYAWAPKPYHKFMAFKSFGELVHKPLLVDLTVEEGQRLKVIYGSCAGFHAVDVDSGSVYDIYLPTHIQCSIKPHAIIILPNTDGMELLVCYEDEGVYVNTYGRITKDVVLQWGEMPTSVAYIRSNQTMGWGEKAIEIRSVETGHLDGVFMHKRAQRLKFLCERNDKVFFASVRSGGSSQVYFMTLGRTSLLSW
Settings: not given
Consider `C/C=C/Cn1cc(-c2ccc(C(=O)N3CCOCC3)cc2)c2cc[nH]c2c1=O`, for which the inhibition was 4.8%.

A further experiment is filed under the species Rattus norvegicus. The experiment is described as follows: Displacement of [3H]flunitrazepam from rat brain central BZD at 10 uM after 60 mins by radioligand binding assay relative to control.
Settings: not given
In the case of `C/C=C/Cn1cc(-c2ccc(C(=O)N3CCOCC3)cc2)c2cc[nH]c2c1=O`, the Activity came to 13%.

In the next experiment the target is Muscarinic acetylcholine receptor M3 (Homo sapiens) (UniProt P20309). The experiment is described as follows: Displacement of [3H]4-DAMP from human recombinant M3 receptor at 10 uM after 60 mins by scintillation counting analysis relative to control.
Muscarinic acetylcholine receptor M3 (Homo sapiens), sequence (P20309 whole entry, looked up): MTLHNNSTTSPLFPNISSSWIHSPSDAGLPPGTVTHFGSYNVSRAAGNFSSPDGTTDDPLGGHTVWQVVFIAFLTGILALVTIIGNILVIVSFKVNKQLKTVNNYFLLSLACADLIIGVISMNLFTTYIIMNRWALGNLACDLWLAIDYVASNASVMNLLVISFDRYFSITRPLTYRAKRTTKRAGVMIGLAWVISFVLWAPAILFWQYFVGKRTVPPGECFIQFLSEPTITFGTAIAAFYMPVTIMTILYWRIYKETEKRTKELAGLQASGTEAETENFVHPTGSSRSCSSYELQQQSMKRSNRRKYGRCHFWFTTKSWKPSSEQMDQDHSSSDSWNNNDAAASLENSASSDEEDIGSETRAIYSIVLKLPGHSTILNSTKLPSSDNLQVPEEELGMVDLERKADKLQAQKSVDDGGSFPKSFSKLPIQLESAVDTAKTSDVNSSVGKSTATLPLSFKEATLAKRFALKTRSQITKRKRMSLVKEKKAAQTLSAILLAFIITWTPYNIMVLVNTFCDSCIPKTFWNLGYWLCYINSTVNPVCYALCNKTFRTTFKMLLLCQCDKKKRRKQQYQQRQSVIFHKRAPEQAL
Settings: not given
As for `C/C=C/Cn1cc(-c2ccc(C(=O)N3CCOCC3)cc2)c2cc[nH]c2c1=O`, the Activity is -13%.
